Measured values taken from the NIST ThermoML archive (doi:10.1021/je034290l).

Legend:
[1] = Liquid
[2] = refractive index (Na D-line) (dimensionless); conditions: 318.15 K; 101.33 kPa; Liquid; Standard Abbe refractometry

CCCC(=O)OC [methyl butanoate]
Conditions | mass density [kg/m3]
[1], 318.15 K, 101.33 kPa | 870.24

[1]
Conditions | vapor or sublimation pressure [kPa]
347.53 K | 40.12
348.26 K | 41.24
349.21 K | 42.76
349.79 K | 43.84
350.81 K | 45.25
351.98 K | 46.74
352.34 K | 47.92
353.21 K | 49.41
353.72 K | 50.85
354.96 K | 51.83
355.26 K | 53.5
356.06 K | 54.82
356.79 K | 55.89
357.44 K | 57.38
358.24 K | 58.61
358.9 K | 60.02
359.7 K | 61.42
360.43 K | 62.63
360.93 K | 64.13
362.03 K | 66.54
362.31 K | 68.03
363.2 K | 69.42
363.49 K | 70.61
363.78 K | 71.18
365.02 K | 73.5
365.38 K | 74.77
365.97 K | 75.89
366.41 K | 77.39
366.84 K | 78.61
367.57 K | 80.14
368.01 K | 81.39
368.59 K | 82.57
369.25 K | 83.91
369.95 K | 85.71
370.19 K | 86.58
370.49 K | 87.94
371.07 K | 88.35
371.72 K | 90.8
371.79 K | 92.1
372.31 K | 93.26
372.89 K | 94.59
373.47 K | 95.92
373.84 K | 97.46
374.57 K | 99.14
374.77 K | 100.04
375.24 K | 101.32
375.37 K | 102.58
375.81 K | 104.06
376.02 K | 105.47
376.39 K | 106.5
376.97 K | 107.92
377.55 K | 109.23
378.14 K | 110.58
378.36 K | 112.15
378.79 K | 113.36
378.94 K | 114.67
379.3 K | 115.84
379.67 K | 117.27
380.03 K | 118.72
380.69 K | 120.15
381.2 K | 121.36
381.56 K | 122.59
381.64 K | 124.01
381.85 K | 125.24
382.22 K | 126.48
382.73 K | 127.91
382.95 K | 129.4
383.6 K | 130.75
383.68 K | 132.15
384.33 K | 133.49
384.77 K | 134.91
384.84 K | 135.92
385.06 K | 137.27
385.35 K | 138.45
385.72 K | 140.01
386.06 K | 141.27
386.74 K | 142.63
386.84 K | 144.13
387.1 K | 145.37
387.47 K | 146.49
387.61 K | 147.69
387.98 K | 149.24
388.41 K | 150.57
388.92 K | 151.94
389.02 K | 153.4
389.36 K | 154.57
390.02 K | 156.49
390.16 K | 157.37
390.36 K | 158.7
390.53 K | 160.05
390.89 K | 161.18
391.07 K | 162.57
391.55 K | 163.94
391.98 K | 165.7
392.2 K | 166.69

Conditions | refractive index
[2] | 1.3753
